Reference: the supplement of paper PMC10307832

Columns and labels:
Test in all cases: relative viability (nuclei count vs DMSO), 5 days (fraction); higher = more cells survive
[1] = compound: CC1=CC=C(C=C1)C(=O)CN2C3=C(CCCC3)SC2=N [Pifithrin_alpha]
Method in brief: (§1)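 Lung cancer cell lines were seeded into 1536-well plates, kept overnight at 37 °C and pinned with five library-drug doses (not always all listed) spaced by √10. After 5 days, nuclei were Hoechst-stained, imaged at 4× and counted with MetaXpress. Viability is treated-well nuclei over vehicle-well nuclei, taken as a median across plates. Plates needed control CV below 25% and at least one doubling.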

[2] = compound: CNC(=O)c1ccccc1Sc1ccc2c(/C=C/c3ccccn3)n[nH]c2c1 [Axitinib]
Method in brief: as §1

[3] = compound: Nc1nc(Nc2ccc3c(c2)CC[C@@H](N2CCCC2)CC3)nn1-c1cc2c(nn1)-c1ccccc1CCC2 [Bemcentinib]
Method in brief: as §1

Cell Line	relative viability ([1]; 1 µM)	relative viability ([1]; 3.162 µM)	relative viability ([1]; 10 µM)	relative viability ([1]; 31.62 µM)	relative viability ([1]; 100 µM)	relative viability ([2]; 0.005 µM)	relative viability ([2]; 0.01581 µM)	relative viability ([2]; 0.05 µM)	relative viability ([2]; 0.1581 µM)	relative viability ([2]; 0.5 µM)	relative viability ([3]; 0.04 µM)	relative viability ([3]; 0.1265 µM)	relative viability ([3]; 0.4 µM)	relative viability ([3]; 1.265 µM)	relative viability ([3]; 4 µM)
A-427	0.975	0.957	0.804	0.788	1.02	1.02	0.93	1.02	1.02	0.964	0.935	1.11	1.05	0.93	0.931
LXF-289	1.02	1.02	0.98	0.941	0.977	1.01	0.971	0.994	0.963	1.05	1.03	1.09	1.06	1.06	1.05
NCI-H1355	0.849	0.808	0.645	0.565	0.713	0.945	1.01	1.05	0.968	0.901	0.992	1.08	1.09	0.974	1.06
NCI-H1437	1.02	1.05	0.953	0.827	0.793	1.05	0.991	0.961	0.983	1.01	0.925	1.01	1.03	0.965	0.969
HCC-366	1.01	0.974	1.01		1.04	0.99	0.999	1.06	1	1.04	1.07	1.07	0.987	0.986	0.995
NCI-H1299	0.997	1.06	1.02	0.812	1.02	1.04	1	1.05	1	1.08	1.02	1.02	1.05	0.994	1.05
201T	0.992	0.781	0.679	0.646	0.724	0.994	0.936	0.953	0.964	0.955	0.943	0.982	1.05	0.947	1.01
IA-LM	0.853	0.993	0.555	0.491	0.418	1.03	0.954	0.987	0.999	0.88	0.946	1.19	0.975	0.995	0.977
NCI-H1734	0.885	0.99	0.915	0.751	0.937	0.998	0.951	1.03	0.9	1.03	0.91	1.01	0.982	0.996	1.08
NCI-H1993	0.693	0.764	0.743	0.658	0.775	1.05	0.892	0.909	0.94	0.864	0.911	0.927	1.22	0.921	0.994
NCI-H2085	0.892	0.973	0.947	0.897	0.959	1.02	1.05	1.03	0.998	0.998	0.964	1.03	0.994	1.02	0.993
EBC-1	0.973	0.996	0.794	0.582	0.723	1.15	0.995	1.05	0.956	1.08	1.02	1.2	1.09	0.999	1.22
COR-L23	1.07	1.09	0.977		0.94	1.05	0.93	1.06	0.923	1.05	1.03	1.17	1.14	1.18	1.12
NCI-H1793	0.734	0.817	0.838	0.823	0.874	1.06	0.833	0.889	0.819	0.647	0.834	1.05	0.882	0.686	0.999
A549	1.03	1.01	1	0.889	1.01	0.997	0.95	0.95	0.877	1.02	0.977	1.13	0.984	1.04	1.02
EPLC-272H	0.622	0.892	0.859	0.755	0.802	0.943	0.832	0.938	0.896	0.83	0.749	0.991	1.01	0.906	0.841
NCI-H2009	0.96	1.01	0.974	0.65	0.878	1.01	1	1.05	1.06	1.09	1.02	1.04	1.04	1.03	1.05
ChaGo-K-1	0.882	0.987	1	0.842	1.05	1.06	1.02	1.05	0.922	0.936	1.01	0.966	1.03	0.938	0.929
SW 900	0.706	0.643	0.75	0.648	0.653	0.929	0.584	0.724	0.92	1.01	0.772	0.97	0.913	0.742	0.871
NCI-H2342	0.916	0.928	0.884	0.976	0.929	0.975	1.14	1.01	1.09	0.775	0.949	1.06	1.01	0.932	1.01
NCI-H460	1.06	0.949	0.872	0.592	0.837	0.976	0.981	1.05	1.01	1.1	0.973	1.1	1.06	1.07	1.01
NCI-H322M	0.906	0.891	1.01	0.851	0.869	1.03	0.847	0.992	0.813	1.03	0.873	0.966	0.982	0.953	0.998
HCC-827	1.03	1.02	0.977	0.809	0.896	1.03	1.01	1.06	1.1	1.15	1.07	1.05	0.994	0.976	1.06

Cell Line	relative viability ([1]; 1 µM)	relative viability ([1]; 3.162 µM)	relative viability ([1]; 10 µM)	relative viability ([1]; 31.62 µM)	relative viability ([1]; 100 µM)	relative viability ([2]; 0.005 µM)	relative viability ([2]; 0.01581 µM)	relative viability ([2]; 0.05 µM)	relative viability ([2]; 0.1581 µM)	relative viability ([2]; 0.5 µM)	relative viability ([3]; 0.04 µM)	relative viability ([3]; 0.1265 µM)	relative viability ([3]; 0.4 µM)	relative viability ([3]; 1.265 µM)	relative viability ([3]; 4 µM)
HOP-62	0.952	1.1	1.06	0.791	1.12	1.01	0.965	1.03	1.01	1.03	1.01	1.15	0.999	1.02	1.04
Calu-6	1.06	1.05	1	0.655	0.899	1.08	0.999	1.03	1	1.12	1.07	1.15	1.13	1.08	1.05
NCI-H2023	0.924	0.846	0.902	0.461	0.686	0.984	0.972	0.945	0.936	1.13	0.975	1.08	1.14	1.08	1.13
NCI-H441	1.08	1.21	1.03	0.721	1.23	1.07	1.07	1.11	1.22	1.1	1.01	1.23	1.04	0.915	1.26
NCI-H2347	0.954	1.03	1.07	0.744	1.03	0.983	0.959	1.09	1.06	0.951	0.953	1.17	1.06	0.956	1.04
NCI-H1648	0.791	0.852	0.869	0.625	0.691	1.03	0.984	0.61	0.882	0.632	0.85	1.06	1.07	0.724	0.694
NCI-H358	0.825	0.94	0.924	0.733	0.945	0.947	0.957	1.05	0.87	1.14	0.915	0.941	0.997	1.01	1.07
NCI-H1944	0.898	0.826	0.781	0.451	0.71	1.04	0.952	1.02	0.943	0.761	0.968	1.05	0.993	0.941	0.988
NCI-H1792	0.725	0.938	0.731	0.621	0.886	0.965	0.814	0.855	0.935	0.7	0.877	1.12	1.08	0.841	0.85
ABC-1	0.523	0.85	0.788	0.55	0.731	0.945	0.863	0.985	0.812	1.08	0.78	1.14	1.16	0.865	0.984
UMC-11	0.965	0.949	1.04	0.907	1.23	1.03	0.943	0.956	0.935	0.899	0.982	1.13	1.08	0.871	0.995
PC-3 [JPC-3]	0.73	1.03	0.934	0.949	0.932	1.08		1.1	1.03	1.2	0.978	1.06	1.12	1.05	1.06
LU99A	0.941	0.89	0.903		0.869	0.903	1.02	1.03	0.883	0.904	0.903	1.02	0.98	1.02	1.02
CAL-12T	0.778	1	0.937	0.711	0.765	1.03	1	0.983	0.94	0.977	0.989	1.02	1.06	1.02	1.01
NCI-H2087	0.932	1.13	1.02	0.63	0.958	0.939	1.09	0.996	1.02	0.986	1.12	1.2	1.07	0.969	1.03
LCLC-97TM1		0.934	1.13		0.975	1.06	1.02	0.986	0.892	0.822	0.997	1.09	0.801	1.03	0.982
BEN	0.854	1.02	1.14	0.93	1.08	0.958	1.01	0.902	0.868	0.741	0.833	1.13	1.08	0.919	0.894
NCI-H727	0.829	0.841	0.883	0.587	0.837	1.01	0.881	0.991	0.86	0.972	0.869	1.08	1.19	1.01	1.2
NCI-H1915	0.887	1.03	0.737		1.08	1	1.07	0.982	0.99	0.999	1.01	1.1	1.05	0.947	0.958
HARA	0.906	0.783	0.916	0.65	0.853	1.05	0.79	0.887	0.756	1.12	0.899	1.28	0.995	0.82	0.951
NCI-H1650	0.889	0.811	0.787	0.607	0.813	1.07	0.805	1.05	0.822	1.15	0.783	1.01	0.974	0.978	0.861
EMC-BAC-2	0.716	1.02	0.617	0.799	0.93	1	0.925	0.977	0.957	0.771	0.956	0.939	1.07	0.955	0.978
NCI-H1703	0.835	0.945	0.908	0.902	0.879	0.846	0.48	0.266	0.216	0.238	0.664	0.966	0.906	0.979	0.877
